The text below walks through data of PubChem BioAssay (NCI).

Test systems include HT29 colon; UO-31 renal; SK-OV-3 ovarian; OVCAR-8 ovarian; SN12C renal; IGROV1 ovarian; MALME-3M melanoma; TK-10 renal.
Common to all, as to assay: inhibition of tumour cell growth, NCI panel, 48 h

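Five concentrations, 48 hours, 96-well plates. Abbreviation: GI50, concentration required for 50% inhibition of growth. Definition used: TGI = concentration required for complete inhibition of growth.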

With `C(=C/CCCN1O[C@@H](CCCCCCCCc2cccnc2)[C@H]2CCC[C@H]21)/CCCCCCCCCc1cccnc1`, the TGI in the test with HT29 colon turned out to be 61.1 µM; with UO-31 renal it was 40.5 µM; in the test on SK-OV-3 ovarian it was 47.2 µM; with OVCAR-8 ovarian it was 88.3 µM; in the test with SN12C renal, 40.3 µM; in the test on IGROV1 ovarian, 79.4 µM. For the same compound, the results for the TGI with MALME-3M melanoma and in the test with TK-10 renal were 33.9 µM and 38.4 µM, respectively.
On to `CC(N)/C(N)=N/O` (stereo not drawn), for which the TGI with HT29 colon, in the test on UO-31 renal, in the test with SK-OV-3 ovarian, in the test on OVCAR-8 ovarian, in the test on SN12C renal and with IGROV1 ovarian was greater than 100 µM in each case. The TGI with MALME-3M melanoma and with TK-10 renal was greater than 100 µM in each case.
On to `O=C(C(=O)n1ccc2ccccc21)n1ccc2ccccc21`, for which the TGI was greater than 100 µM in the test with HT29 colon; greater than 100 µM in the test with UO-31 renal; greater than 100 µM in the test on SK-OV-3 ovarian; greater than 100 µM in the test on OVCAR-8 ovarian; greater than 100 µM with SN12C renal; 53.1 µM in the test with IGROV1 ovarian. Further, the TGI with MALME-3M melanoma and in the test on TK-10 renal was greater than 100 µM in each case.
On to `CC(=O)CC1CCC(=O)/C=C/C(=O)OC(CC(C)=O)CCC(=O)/C=C/C(=O)O1` (stereo not drawn), for which the TGI was 31.6 µM in the test with HT29 colon; 26.9 µM with UO-31 renal; 36.1 µM in the test with SK-OV-3 ovarian; 53.5 µM in the test with OVCAR-8 ovarian; 15.3 µM in the test on SN12C renal; 32.1 µM in the test on IGROV1 ovarian. Also, the TGI with MALME-3M melanoma is 6.72 µM; in the test on TK-10 renal it was 19 µM.
For the compound `CCOC(=O)c1ccc(-c2cc(C)no2)[nH]1`, the TGI in the test with HT29 colon, in the test with UO-31 renal, in the test on SK-OV-3 ovarian, with OVCAR-8 ovarian, with SN12C renal and in the test on IGROV1 ovarian was greater than 100 µM throughout. Moreover, the TGI in the test on MALME-3M melanoma and in the test on TK-10 renal was greater than 100 µM throughout.
Regarding `N#CSC#CCCC#CSC#N`, the TGI in the test with HT29 colon came out at 45.8 µM; with UO-31 renal, 33.5 µM; with SK-OV-3 ovarian, 29.7 µM; with OVCAR-8 ovarian, 60.7 µM; in the test with SN12C renal, 31.9 µM; in the test on IGROV1 ovarian it was 45.1 µM. The results for the TGI in the test on MALME-3M melanoma and in the test with TK-10 renal were 34.3 µM and 33.1 µM, respectively.
In the case of `O=c1[nH]c(=O)c2c3n(cc2[nH]1)CCCCC3`, the TGI with HT29 colon, in the test on UO-31 renal, in the test with SK-OV-3 ovarian, with OVCAR-8 ovarian, with SN12C renal and with IGROV1 ovarian was greater than 100 µM each time. The TGI in the test on MALME-3M melanoma and in the test with TK-10 renal was greater than 100 µM throughout.
As to `CCCCCCOc1ccc(/C=N/Nc2cc(C)nc3ccc(Cl)cc23)cc1`, the GI50 was 1.59 µM in the test on HT29 colon; 1.5 µM with UO-31 renal; 1.7 µM in the test with SK-OV-3 ovarian; 1.91 µM in the test on OVCAR-8 ovarian; 1.69 µM in the test with SN12C renal; 1.79 µM with IGROV1 ovarian. Besides, the GI50 in the test with MALME-3M melanoma is 1.91 µM; in the test on TK-10 renal, 1.89 µM. Further, the TGI in the test on HT29 colon amounted to 3.09 µM; in the test on UO-31 renal, 2.88 µM; with SK-OV-3 ovarian, 3.11 µM; in the test with OVCAR-8 ovarian it was 4.21 µM; in the test on SN12C renal, 3.18 µM; in the test with IGROV1 ovarian, 3.53 µM. Further, the TGI in the test on MALME-3M melanoma came to 3.44 µM; in the test with TK-10 renal it was 3.32 µM.
In the case of `Cc1ccc(Nc2nc(NNC(=O)Cc3ccccc3)nc(NNC(=O)c3ccncc3)n2)cc1`, the TGI in the test with HT29 colon, in the test on UO-31 renal, in the test with SK-OV-3 ovarian, with OVCAR-8 ovarian, in the test with SN12C renal and in the test on IGROV1 ovarian was greater than 10 µM throughout. Also, the TGI with MALME-3M melanoma and in the test on TK-10 renal was greater than 10 µM throughout.
Consider `Oc1ccc(NCn2c(=S)sc3ccccc32)cc1`, for which the TGI in the test on HT29 colon, in the test with UO-31 renal, in the test on SK-OV-3 ovarian, in the test with OVCAR-8 ovarian, with SN12C renal and in the test with IGROV1 ovarian was greater than 100 µM throughout. Further, the TGI in the test on MALME-3M melanoma and in the test with TK-10 renal was greater than 100 µM throughout.
`COc1ccc(C(C)NNC(=O)c2ccncc2)cc1OC` (stereo not drawn): the TGI in the test on HT29 colon, in the test on UO-31 renal, in the test with SK-OV-3 ovarian, with OVCAR-8 ovarian, in the test with SN12C renal and in the test with IGROV1 ovarian was greater than 100 µM each time. The TGI in the test with MALME-3M melanoma and in the test on TK-10 renal was greater than 100 µM throughout.
As for `CCOC(=O)c1cn2c(n1)sc1cc(F)ccc12`, the TGI in the test with HT29 colon, in the test with UO-31 renal, in the test on SK-OV-3 ovarian, in the test with OVCAR-8 ovarian, in the test with SN12C renal and in the test on IGROV1 ovarian was greater than 100 µM each time. Also, the TGI with MALME-3M melanoma and with TK-10 renal was greater than 100 µM throughout.
Take `Cc1nn(C(=O)Cc2ccccc2)c2c1C(c1ccccc1)SC(N)=N2` (stereo not drawn): the TGI in the test on HT29 colon, with UO-31 renal, in the test on SK-OV-3 ovarian, with OVCAR-8 ovarian, in the test on SN12C renal and in the test with IGROV1 ovarian was greater than 100 µM each time. For the same compound, the TGI in the test with MALME-3M melanoma and in the test on TK-10 renal was greater than 100 µM each time.
For the compound `C=C1C(=O)O[C@@H]2/C=C(C)/C=C\[C@@H]3O[C@@]3(C)C[C@@H](O)C12` (stereo partly drawn), the TGI was 26.2 µM in the test on HT29 colon; 30.1 µM in the test with UO-31 renal; greater than 100 µM with SK-OV-3 ovarian; 55.1 µM in the test with OVCAR-8 ovarian; 30.4 µM with SN12C renal; 28.6 µM in the test on IGROV1 ovarian. Besides, the TGI in the test on MALME-3M melanoma is 30.9 µM; in the test on TK-10 renal it was 16.1 µM.
As for `O=[N+]([O-])c1ccc2nc(Nc3ccccc3)c(Nc3ccccc3)nc2c1`, the TGI stood at 1.53 µM with HT29 colon; 2.57 µM in the test with UO-31 renal; 2.88 µM in the test on SK-OV-3 ovarian; 6.45 µM with OVCAR-8 ovarian; 2.67 µM in the test with SN12C renal; 4.98 µM in the test on IGROV1 ovarian. For the same compound, the TGI in the test on MALME-3M melanoma worked out at 4.79 µM; with TK-10 renal it was 6.84 µM.
